From patent US11160865B2, “Liquid pharmaceutical composition for the delivery of active ingredients” (NOVALIQ GMBH, priority 2010, dated 2021)
“And” between values parts separate entries of the source, which are not always exact repeats. Identical values can stand only once. “Also recorded” adds a separate entry of the source. Like-named read-outs stand apart in the source and are kept apart here.

How the values were obtained:
rabbit eyes (cornea) [1] = experiment: Ex-vivo eye irritation test (EVEIT), healing of corneal abrasion lesions; settings: for Final size of corneal lesions: Example 2, after 3 days of hourly dosing 12 h/day, runs are replicates; for starting area of corneal lesions: Example 3; for outcome of corneal lesions: Example 3, after 2 or 3 days of exposure
rabbit eyes (cornea) [2] = test system: rabbit eyes (cornea)
[3] = Example 3, within 3 days, first set of experiments

outcome of corneal lesions (rabbit eyes (cornea) [2])	starting area of corneal lesions (rabbit eyes (cornea) [2])	Compound	effect on healing of abraded corneal lesions (rabbit eyes (cornea) [1]; Example 2)	morphological and histological evaluation of cornea at end of test (rabbit eyes (cornea) [1]; Example 2)	penetration into the cornea by OCT imaging (rabbit eyes (cornea) [1]; Example 2)	physiological tolerability (rabbit eyes (cornea) [1]; Example 2)	Final size of corneal lesions (rabbit eyes (cornea) [1])	starting area of corneal lesions (rabbit eyes (cornea) [1]) [mm^2]	outcome of corneal lesions (rabbit eyes (cornea) [1])	area of corneal damage after treatment (rabbit eyes (cornea) [1]; [3]) [mm^2]	reduction of area of corneal damage (rabbit eyes (cornea) [1]; [3]) [%]
		CCCCCC(F)(F)C(F)(F)C(F)(F)C(F)(F)F [F4H5, 1-perfluorobutylpentane]	positive effect on the healing of damaged cornea similar to that of hyaluronic acid; also recorded: Substantial healing	healed very well	no indication of penetration	better tolerated than culture medium	0.19 mm^2 and 1.01 mm^2 and 0.06 mm^2				
complete remission	10.54-16.65 mm^2	CCCCCCCCC(F)(F)C(F)(F)C(F)(F)C(F)(F)C(F)(F)C(F)(F)F [F6H8, 1-perfluorohexyloctane]									
		hyaluronic acid [HA]	Substantial healing	healed very well			0.36 mm^2 and 0.24 mm^2 and 0.00 mm^2	12.16	complete healing	0.32	97.4
		benzalkonium chloride [BAC]	rapid growth of the lesions	complete disintegration of the corneal epithelium				11.23	complete epithelial loss		
